Measurements published in article PMC11944387, “Cannabidiol-Based Thiosemicarbazones: A Preliminary Study Evaluating Their Anti-Tyrosinase Properties” (Molecules, 2025).
Several values for one entry are separate records, joined by “and”; a condition that tells them apart may be missing. Identical values can stand only once. Entries after “also recorded” stand apart in the source; their conditions may differ.

Columns and labels:
[1] = DPPH radical-scavenging assay; details: 100 μM DPPH in ethanol, 30 min at room temperature in the dark, absorbance 517 nm; mean ± SD
Method: The total antioxidant capacity of the synthesized compounds was determined using the DPPH radical as a reagent, according to the procedure described by Chang et al. with some modifications. Briefly, 100 μL of 100 μM solution of DDPH in ethanol was added to 10 μL of the synthesized compounds at different concentrations (500, 250, 125, 62.5, 31.25, 15.62, and 7.81 μM). […] The percentage of the inhibition of DPPH oxidation was calculated according to the following formula: DPPHscavengingeffect%=Acontrol−Asample/Acontrol×100 where Acontrol means the absorbance of the control sample and Asample means the absorbance of the standard or tested compound.

[2] = Ferric-reducing antioxidant power (FRAP) assay; details: trolox equivalent; 45 min at 37 °C, absorbance 595 nm
Method: The antioxidant capacity of the synthesized compounds was evaluated by the reduction of the ferric 2,4,6-tripyridyl-s-triazine complex (Fe^3+-TPTZ) to the ferrous form (Fe^2+-TPTZ) at low pH, which causes a colored ferrous–tripyridyltriazine complex to form, according to the procedure described by Benzie et al., with some modifications. Briefly, 20 µL of the tested compound was mixed with 130 µL FRAP reagent (buffer acetate pH = 3.6, 10 mM TPTZ, 40 mM HCl, 20 mM FeCl3/H2O ratio 10:1:1) and then incubated for 45 min at 37 °C. FRAP values were obtained by comparing the absorbance change at 595 nm in test reaction mixtures with those containing ferrous ions in known concentrations using trolox as a calibration curve (concentrations between 7.8 and 500 µM). The results were expressed as μM of trolox equivalent (TE). The absorbance was measured using a Tecan Infinite 200 PRO plate reader.

mushroom TYR [3] = assay: Inhibition of diphenolase activity of mushroom TYR (L-DOPA substrate); assay type: biochemical, Agaricus bisporus; details: for IC50: diphenolase activity, L-DOPA 2 mM, pH 6.8, 37 °C, read-out: IC50 against mushroom TYR catalyzing oxidation of L-DOPA; for Inhibitory activity on TYR (in words): discussion of Table 1, mushroom TYR
Method: The inhibitory effects of the thiosemicarbazone–CBD–aldehyde derivatives on the diphenolase activity of mushroom TYR were assessed by UV-Vis spectrometry using L-DOPA as the substrate.
A potassium phosphate buffer (80 μL, 50 mM, pH 6.8), 20 μL of tyrosinase (100 units/mL), and 2 μL of the tested compounds (10–150 μM) dissolved in dimethyl sulfoxide (DMSO) were added to 96-well plates. After incubation at 37 °C for 20 min, 100 μL of L-DOPA (2 mM) was added. The absorbance changes at 475 nm (ε = 3.7 × 10^3 M^−1cm^−1) were immediately monitored for 20 min at 37 °C using a Tecan Infinite 200 PRO plate reader. […] Dose–response curves were generated by conducting assays with increasing concentrations of each inhibitor. To ensure measurement accuracy, all experiments were performed in triplicate, with the average value used as the final result.

mushroom TYR [4] = assay: Monophenolase inhibition assay of mushroom TYR (L-tyrosine substrate), lag time; assay type: biochemical, Agaricus bisporus; details: oxidation of L-tyrosine by mushroom TYR; for Lag time: compound 20 μM, without inhibitor 4.40 min; for Lag phase: control 264 s
Method: Additionally, the impact of the newly synthesized compounds on the initial stage of TYR enzymatic activity was evaluated using L-tyrosine as the substrate. This initial phase is characterized by a lag period and an increased reaction rate.
[…] After incubation at 37 °C for 20 min, 100 μL of L-tyrosine (2 mM) was added. The absorbance changes at 475 nm were immediately monitored for 40 min at 37 °C using a Tecan Infinite 200 PRO plate reader. The lag time was determined from the plot of absorbance at 475 nm versus time (min) by extrapolating the linear portion of the curve to the x-axis.

mushroom TYR [5] = assay: Fluorescence quenching assay of TYR; assay type: binding, Agaricus bisporus; details: 310 K; for kq (bimolecular quenching rate constant): from Ksv with τ0 = 10^−8 s; for ka (binding constant): static quenching, double-log equation; for Ksv (Stern–Volmer quenching constant): λex 280 nm, pH 6.8
Method: The fluorescence quenching spectra were recorded with an excitation wavelength (λex = 280 nm) and excitation and emission slit widths of 5 nm. A potassium phosphate buffer (80 μL, 50 mM, pH 6.8), 20 μL of tyrosinase (100 units/mL), and 2 μL of the tested compounds (10–100 μM) dissolved in DMSO were added to 96-well plates. After incubating at 37 °C for 20 min, the fluorescence spectrum was recorded at an emission range from 315 to 415 nm. Fluorescence quenching is described by the Stern–Volmer equation [69]: F0/F=1+Kqτ0[Q]=1+ksv[Q]
For the static quenching interaction, the binding affinity (Ka) and the number of binding sites (n) between the inhibitor and TYR were determined using the following calculations:(1) logF0−F/F=nlogQ+logka where F and F0 represent the fluorescence intensities of protein in the presence and absence of a quencher, respectively. [Q] is the quencher concentration. Ksv is the Stern–Volmer quenching constant, and kq is the rate constant of the bimolecular quenching process. τ0 is the average fluorescence lifetime of the fluorophores in the absence of the quencher, with a typical value of 10^−8 s for biological macromolecules.

mushroom TYR [6] = assay: Inhibition kinetics on diphenolase activity of TYR (Lineweaver–Burk); assay type: biochemical, Agaricus bisporus; details: Lineweaver–Burk plot, L-DOPA 0.1–1 mM, compound 2.5–30 μM
Method: The inhibition mechanism of compound 5 on the diphenolase activity of TYR was further studied. The inhibition type was determined by the classical Lineweaver–Burk plot based on the inhibitory results of 5.
To evaluate the inhibition kinetics of tyrosinase, assays were conducted in phosphate buffer (50 mM, pH 6.8) using L-DOPA as the substrate (0.1–1 mM) and tyrosinase ([…]) in the presence of varying concentrations of compound 5 (2.5–30 μM) under the same conditions as described in Section 4.4. Absorbance changes at 475 nm were continuously monitored for 40 min at 37 °C using a Tecan Infinite 200 PRO plate reader. Initial reaction velocities (V0) were determined for each inhibitor concentration, and kinetic parameters (Kₘ and Vₘₐₓ) were analyzed using Lineweaver–Burk and Michaelis–Menten plots to determine the type of inhibition. All experiments were performed in triplicate to ensure reproducibility.

Structure (SMILES)	IC50 [1]	FRAP value [2]	IC50 (mushroom TYR [3])	Lag time (mushroom TYR [4])	Lag phase (mushroom TYR [4])	kq (bimolecular quenching rate constant) (mushroom TYR [5])	ka (binding constant) (mushroom TYR [5])	Ksv (Stern–Volmer quenching constant) (mushroom TYR [5])	Inhibitory activity on TYR (in words) (mushroom TYR [3])	Inhibition type (mushroom TYR [6])
C=C(C)[C@@H]1CCC(C)=C[C@H]1c1c(O)cc(CCCCC)cc1O [Compound 1, Cannabidiol]	506.1 ± 4.67 µM	282.1 ± 5.68 μM TE	> 100 µM							
C=C(C)[C@@H]1CCC(C)=C[C@H]1c1c(O)cc(CCCCC)c(C=O)c1O [Compound 2]			> 100 µM							
C=C(C)[C@@H]1CCC(C)=C[C@H]1c1c(O)cc(CCCCC)c(/C=N/NC(=S)N(C)C)c1O [Compound 7, 3-(4,4-dimethyl-3-thiosemicarbazone)–CBD–aldehyde]	116 ± 5.05 µM	981.9 ± 9.66 μM TE	28.1 ± 1.82 µM	6.19 min and 6.19 ± 0.27 min	371 s	1.38e+12 M⁻¹ s⁻¹	5200 M⁻¹	13800 M⁻¹		
C=C(C)[C@@H]1CCC(C)=C[C@H]1c1c(OC)cc(CCCCC)c(/C=N/NC(N)=S)c1OC [Compound 9, 3-thiosemicarbazone–CBD–dimethylether]	316 ± 16 µM	431.5 ± 13.51 μM TE	22.4 ± 2.9 µM	6.67 min and 6.67 ± 0.17 min	400 s	1.3e+12 M⁻¹ s⁻¹	13100 M⁻¹	13000 M⁻¹		
Cc1c(C)c2c(c(C)c1O)CCC(C)(C(=O)O)O2 (stereo not shown) [trolox, reference compound]	54.6 ± 3.45 µM									
C=C(C)[C@@H]1CCC(C)=C[C@H]1c1c(O)cc(CCCCC)c(/C=N/NC(=N)N)c1O [Compound 4]			> 100 µM						did not exhibit any inhibitory activity	
C=C(C)[C@@H]1CCC(C)=C[C@H]1c1c(O)cc(CCCCC)c(/C=N/NC(=S)Nc2ccccc2)c1O [Compound 8, 3-(4-phenyl-3-thiosemicarbazone)–CBD–aldehyde]	57.6 ± 1.71 µM	931.7 ± 8.97 μM TE	42.2 ± 3.52 µM	4.58 min and 4.58 ± 0.04 min	274 s	4.68e+12 M⁻¹ s⁻¹	25500 M⁻¹	46800 M⁻¹		
C=C(C)[C@@H]1CCC(C)=C[C@H]1c1c(O)cc(CCCCC)c(/C=N/NC(N)=O)c1O [Compound 3]			> 100 µM						did not exhibit any inhibitory activity	
C=C(C)[C@@H]1CCC(C)=C[C@H]1c1c(O)cc(CCCCC)c(/C=N/NC(=S)NC)c1O [Compound 6, 3-(4-methyl-3-thiosemicarbazone)–CBD–aldehyde]	63.7 ± 3.29 µM		29.4 ± 2.22 µM	6.06 min and 6.06 ± 0.11 min	363 s	9.98e+11 M⁻¹ s⁻¹	8700 M⁻¹	9980 M⁻¹		
C=C(C)[C@@H]1CCC(C)=C[C@H]1c1c(O)cc(CCCCC)c(/C=N/NC(N)=S)c1O [Compound 5, 3-thiosemicarbazone–CBD–aldehyde]	53.5 ± 5.29 µM	1257 ± 6.78 μM TE	27.7 ± 1.84 µM	9.89 min and 9.89 ± 0.66 min	593 s	7.61e+11 M⁻¹ s⁻¹	12100 M⁻¹	7610 M⁻¹		mixed-type inhibition; also recorded: reversible, mixed-type inhibitor
